# Test results published in patent US4999371A, “Substituted 3,4-dihydro-2H-benzopyrans, processes for their preparation, their use and pharmaceutical products based on these compounds” (Hoechst Aktiengesellschaft, priority 1987, dated 1991).
# System: Langendorff heart preparation
# Experiment: Coronary flow in the Langendorff heart preparation of Guinea pigs
# Conditions: 6 heart preparations
# Experimental: Coronary flow in the Langendorff heart preparation of Guinea pigs
# Guinea pigs of either sex were killed by a blow on the head. The hearts were quickly removed and perfused according to Langendorff (Langendorff, Pflugers Arch. Ges. Physiol. 190, 280 (1895)) with a Ringer solution containing 154 mMol NaCl, 5,6 mMol KCl, 1,9 mMol CaCl2, 2,4 mMol NaHCO3 and 5 mMol glucose which was gassed with oxygen. The temperature of the solution was 37° C. The test substances dissolved in propanediol (0,1%) were added to the inflowing Ringer solution by bolus injection into the inflow tract. The effect, i.e. changes of the coronary outflow, was measured with a drop counter and registered on a Hellige Multiscriptor (Hellige GmbH, Freiburg, Germany) For each compound increase in coronary outflow was measured for three different doses and each dose was tested in 6 different heart preparations.
Structure (SMILES),Duration of elevated coronary outflow (single dose 500 ng) [min],other results
"CC1(C)Oc2ccc(S(C)(=O)=O)cc2[C@@H](N2CCCC2=O)[C@@H]1O (racemic) [(±)-2,2-Dimethyl-3,4-dihydro-6-methylsulfonyl-trans-4-(2-oxo-1-pyrrolidinyl)-2H-benzo[b]pyran-3-ol, reference compound]",,Duration of elevated coronary outflow (single dose 2000 ng): 5 min
"CC1(C)Oc2ccc(C#N)cc2[C@@H](N2CCCC2=O)[C@@H]1O (racemic) [(±)-6-Cyano-3,4-dihydro-2,2-dimethyl-trans-4-(2-oxo-1-pyrrolidinyl)-2H-benzo[b]pyran-3-ol, reference compound]",6,
"COc1cc2c(cc1S(=O)(=O)c1ccccc1)[C@@H](N1CCCC1=O)[C@H](O)C(C)(C)O2 (relative stereo) [Example 3, 3,4-Dihydro-2,2-dimethyl7-methoxy-6-phenylsulfonyl-trans-4-(2-oxo-1-pyrrolidinyl)-2H -benzo[b]-3-ol]",14,
"Cc1ccc(S(=O)(=O)c2ccc3c(c2)[C@@H](N2CCCC2=O)[C@H](O)C(C)(C)O3)cc1 (relative stereo) [Example 4, 3,4-Dihydro-2,2-dimethyl-6-(4-methylphenylsulfonyl)-trans-4-(2-oxo-1-pyrrolidinyl)-2H -benzo[b]pyran-3-ol]",11,
"CC1(C)Oc2ccc(S(=O)(=O)c3ccccc3)cc2[C@@H](N2CCCC2=O)[C@@H]1O (relative stereo) [Example 5, 3,4-Dihydro-2,2-dimethyl-6-phenylsulfonyl-trans-4-(2-oxo1-pyrrolidinyl)-2H-benzo[b]pyran-3-ol]",,Duration of elevated coronary outflow (single dose 400 ng): 11 min
"Cc1ccccc1S(=O)(=O)c1ccc2c(c1)[C@@H](N1CCCC1=O)[C@H](O)C(C)(C)O2 (relative stereo) [Example 14, 3,4-Dihydro-2,2-dimethyl-6-(2-methylphenylsulfonyl)-trans4-(2-oxo-1-pyrrolidinyl)-2H-benzo [b]pyran-3-ol]",,Duration of elevated coronary outflow (single dose 200 ng): 13 min
"CC1(C)Oc2ccc(S(=O)(=O)c3ccccc3)cc2[C@@H](N2CCCC2=O)[C@@H]1O (single isomer, unassigned) [Example 5a, (+)-3,4-Dihydro-2,2-dimethyl-6-phenylsulfonyl-4-(2-oxo-1-pyrrolidinyl)-2H-benzo[b]pyran-3-ol]",,Duration of elevated coronary outflow (single dose 100 ng): 13 min
"COc1cc2c(cc1S(=O)(=O)c1ccccc1)[C@@H](N1CCCC1=O)[C@H](O)C(C)(C)O2 [Example 3a, (+)-3,4-dihydro-2,2-dimethyl-7-methoxy-6-phenylsulfonyl-trans-4-(2-oxo-1-pyrrolidinyl)-2H-benzo[b]pyran-3-ol]",11,
